Measurements taken from the NIST ThermoML archive (doi:10.1016/j.tca.2010.08.002).

Assay: molar heat capacity at saturation pressure
Conditions: Vacuum adiabatic calorimetry

CCCCn1cc[n+](C)c1.O=S(=O)([O-])C(F)(F)F [1-butyl-3-methylimidazolium trifluoromethanesulfonate]
Conditions | molar heat capacity [J/K/mol]
170.36 K, Crystal | 235.9
171.28 K, Crystal | 236.8
172.71 K, Crystal | 238.3
173.26 K, Crystal | 238.8
175.07 K, Crystal | 240.6
175.23 K, Crystal | 240.9
177.2 K, Crystal | 242.9
177.42 K, Crystal | 243.1
179.17 K, Crystal | 245
179.77 K, Crystal | 245.6
181.13 K, Crystal | 247.1
182.11 K, Crystal | 248.1
183.1 K, Crystal | 249.2
184.46 K, Crystal | 250.6
185.06 K, Crystal | 251.3
186.8 K, Crystal | 253.2
187.02 K, Crystal | 253.5
188.97 K, Crystal | 255.7
189.13 K, Crystal | 255.8
190.92 K, Crystal | 257.9
191.47 K, Crystal | 258.4
192.87 K, Crystal | 260
193.8 K, Crystal | 260.9
194.82 K, Crystal | 262.1
196.12 K, Crystal | 263.5
196.77 K, Crystal | 264.3
198.44 K, Crystal | 266.1
198.72 K, Crystal | 266.6
200.66 K, Crystal | 268.7
200.76 K, Crystal | 268.7
202.67 K, Crystal | 271
203.13 K, Crystal | 271.4
204.73 K, Crystal | 273.3
205.57 K, Crystal | 274.2
206.78 K, Crystal | 275.7
208 K, Crystal | 276.9
208.82 K, Crystal | 278.1
210.42 K, Crystal | 279.6
210.87 K, Crystal | 280.4
212.84 K, Crystal | 282.5
212.92 K, Crystal | 282.7
214.96 K, Crystal | 285
215.25 K, Crystal | 285.3
217 K, Crystal | 287.4
217.66 K, Crystal | 288
219.02 K, Crystal | 289.6
220.07 K, Crystal | 290.8
221.05 K, Crystal | 292.2
222.47 K, Crystal | 293.7
223.08 K, Crystal | 294.5
224.86 K, Crystal | 296.5
225.1 K, Crystal | 296.8
227.12 K, Crystal | 299.4
227.25 K, Crystal | 299.4
229.13 K, Crystal | 301.7
229.63 K, Crystal | 302.3
231.14 K, Crystal | 304
232 K, Crystal | 305.2
233.14 K, Crystal | 306.6
234.37 K, Crystal | 308.1
235.15 K, Crystal | 308.9
236.73 K, Crystal | 311
237.14 K, Crystal | 311.5
239.09 K, Crystal | 313.8
239.13 K, Crystal | 313.8
241.12 K, Crystal | 316.1
241.44 K, Crystal | 316.7
243.1 K, Crystal | 318.7
243.78 K, Crystal | 319.6
245.08 K, Crystal | 321
246.12 K, Crystal | 322.2
247.06 K, Crystal | 323.3
248.45 K, Crystal | 325.1
249.03 K, Crystal | 325.9
250.76 K, Crystal | 328
250.78 K, Crystal | 328
250.99 K, Crystal | 328.3
252.81 K, Crystal | 330.6
252.95 K, Crystal | 330.6
253.1 K, Crystal | 330.8
254.78 K, Crystal | 332.9
254.91 K, Crystal | 333.2
255.41 K, Crystal | 333.7
256.73 K, Crystal | 335.5
256.86 K, Crystal | 335.5
257.72 K, Crystal | 336.3
258.69 K, Crystal | 337.8
258.81 K, Crystal | 337.8
260.02 K, Crystal | 339.2
260.34 K, Crystal | 339.8
260.64 K, Crystal | 340.4
260.75 K, Crystal | 340.4
262.32 K, Crystal | 342.1
262.38 K, Crystal | 342.4
262.59 K, Crystal | 342.7
262.69 K, Crystal | 342.7
264.34 K, Crystal | 345
264.53 K, Crystal | 345.3
264.6 K, Crystal | 345
264.62 K, Crystal | 345.3
265.54 K, Crystal | 346.1
266.29 K, Crystal | 347.3
266.46 K, Crystal | 347.6
266.56 K, Crystal | 347.6
266.89 K, Crystal | 347.9
267.48 K, Crystal | 348.7
268.23 K, Crystal | 349.9
268.4 K, Crystal | 349.9
268.49 K, Crystal | 350.2
269.17 K, Crystal | 350.7
291.91 K, Liquid | 424.4
293.17 K, Liquid | 425
293.82 K, Liquid | 425.6
294.28 K, Liquid | 425.6
295.28 K, Liquid | 426.2
295.44 K, Liquid | 426.2
295.71 K, Liquid | 426.5
297.38 K, Liquid | 427
297.43 K, Liquid | 427.3
297.61 K, Liquid | 427.6
299.48 K, Liquid | 428.2
301.69 K, Liquid | 429.6
304 K, Liquid | 430.8
306.31 K, Liquid | 431.9
308.62 K, Liquid | 433.1
310.93 K, Liquid | 434.5
313.24 K, Liquid | 435.7
315.55 K, Liquid | 436.8
317.86 K, Liquid | 438
320.17 K, Liquid | 439.1
322.48 K, Liquid | 440.6
324.79 K, Liquid | 441.7
327.1 K, Liquid | 443.2
329.4 K, Liquid | 444.3
331.71 K, Liquid | 445.5
334.02 K, Liquid | 446.6
336.33 K, Liquid | 448.1
338.64 K, Liquid | 449.2
340.94 K, Liquid | 450.7
343.24 K, Liquid | 451.8
345.55 K, Liquid | 453
347.85 K, Liquid | 454.3
350.16 K, Liquid | 455.5
352.47 K, Liquid | 456.9
354.77 K, Liquid | 458.1
357.08 K, Liquid | 459.5
359.38 K, Liquid | 460.7
361.68 K, Liquid | 461.8
363.99 K, Liquid | 463
366.29 K, Liquid | 464.4
368.59 K, Liquid | 465.6
